Reference: PMC8868518, “Exploring Titanium(IV) Complexes as Potential Antimicrobial Compounds” (Antibiotics, 2022)
Counter-ions that a name gives are not always drawn. Like-named read-outs stand apart in the source and are kept apart here.

How the values were obtained:
MRC-5 cells = assay: MRC-5 cell viability, dose-response treatment, MTT assay; type: cell-based, human; settings: MRC-5 cells, MTT, 72 h, pH 7.4, n = 6, this work
E. coli (ATCC 25922) = assay: CO-ADD antibacterial assay, growth inhibition (OD600); type: cell-based, Escherichia coli; settings: up to 32 μg/mL; for MIC E. coli / MIC: predicted or measured MIC, ≥75% growth inhibition; for MIC / Dmax: Escherichia coli, ATCC25922; for Dmax: read-out: Dmax E. coli, maximum % inhibition
[1] = system: HEK293 ATCC CRL-1573 human embryonic kidney cells; assay: CO-ADD cytotoxicity assay (resazurin); type: cell-based; settings: for antiproliferative effect against HEK293 (in words): all concentrations examined (0.25-32 μg/mL), 20 h, CC50 could not be measured
[2] = pH 4; cited from earlier work
[3] = Homo sapiens, MRC5, read-out: IC50 ± SD
[4] = Homo sapiens, MRC5, read-out: IC50 ± SD (µg/mL)

| Compound | IC50 ± SD (µg/mL) (MRC-5 cells) | IC50 (MRC-5 cells; read-out: IC50 ± SD) | MIC E. coli (E. coli (ATCC 25922)) | Dmax E. coli, maximum % inhibition (E. coli (ATCC 25922)) | antiproliferative effect against HEK293 (in words) [1] | solution stability (in words) [2] | IC50 (MRC-5 cells; [3]) | IC50 (MRC-5 cells; [4]) | MIC (E. coli (ATCC 25922)) | Dmax (E. coli (ATCC 25922)) | IC50 ± SD (MRC-5 cells) | inhibition of HEK293 cell proliferation ([1]; at the maximum concentration tested) |
| --- | --- | --- | --- | --- | --- | --- | --- | --- | --- | --- | --- | --- |
| [K+].[K+].c1ccc2cc3c(cc2c1)[O][Ti-2]12([O]3)([O]c3cc4ccccc4cc3[O]1)[O]c1cc3ccccc3cc1[O]2 [Compound 8, K2[Ti(Naphthalene-2,3-diolate)3]] | >>65.5 µg/mL | > 100 µM | >32 µg/mL | 2.67% | inactive | highly stable in solution |  |  |  |  |  |  |
| O=C(O)CC(O)(CC(=O)O)C(=O)O [Compound 1, Trisodium citrate, reference compound] |  |  |  |  |  |  | > 100 µM | > 29.4 µg/mL | > 32 µg/mL | 6.14% |  |  |
| O=C([O-])C(=O)O.O=C([O-])C(=O)O.[K+].[K+].[O]=[Ti] [Compound 14, Potassium dioxalatoxotitanate(IV) dihydrate] | >>35.4 µg/mL | > 100 µM | >32 µg/mL | 11.0% | insignificant antiproliferative effect |  |  |  |  |  |  |  |
| [Cu(Deferasirox)(H2O)]2 [Compound 15] |  | 8.4 ± 1.62 µM | >32 µg/mL | −9.5% |  |  |  |  |  |  | 7.70 ± 1.47 µg/mL | ~50% |
| Oc1cc2ccccc2cc1O [Compound 2, 2,3-dihydroxynaphthalene, reference compound] |  |  |  |  |  |  | > 100 µM | > 16 µg/mL | > 32 µg/mL | 6.86% |  |  |
| O=C(O)c1ccc(-n2nc3nc2-c2ccccc2[O][Ti]2([O]c4ccccc4-3)[O]c3ccccc3-c3nc(n(-c4ccc(C(=O)O)cc4)n3)-c3ccccc3[O]2)cc1 [Compound 10, titanium(IV) bis(deferasirox)] |  |  | >32 µg/mL | 20.44% | insignificant antiproliferative effect | highly stable in solution |  |  |  |  |  |  |
| O=C(O)c1ccccc1O [Compound 6, salicylic acid, reference compound] |  |  |  |  |  |  | > 100 µM | > 13.8 µg/mL | > 32 µg/mL | -0.01% |  |  |
